Drawing on patent US9447122B2, “Arginase inhibitors and methods of use thereof” (AstraZeneca AB, priority 2010, dated 2016), this text covers Ki for 17 molecules.

Like-named read-outs stand apart in the source and are kept apart here.

One assay has as its target T1, human arginase I (Homo sapiens, UniProt P05089).
T1 sequence (P05089 1-322): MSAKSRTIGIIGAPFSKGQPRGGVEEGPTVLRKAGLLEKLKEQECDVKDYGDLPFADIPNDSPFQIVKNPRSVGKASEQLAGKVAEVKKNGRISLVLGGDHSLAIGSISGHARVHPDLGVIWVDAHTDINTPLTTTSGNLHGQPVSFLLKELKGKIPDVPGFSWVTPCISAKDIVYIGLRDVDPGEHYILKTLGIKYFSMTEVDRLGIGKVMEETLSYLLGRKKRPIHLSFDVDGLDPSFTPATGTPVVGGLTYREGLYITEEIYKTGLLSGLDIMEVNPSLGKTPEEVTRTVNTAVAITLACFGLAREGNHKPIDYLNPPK
Briefly: Arginase inhibition, QuantiChrom colorimetric urea assay, IC50 converted to Ki. It counts as biochemical. The method, then: (§1) For some compounds, their inhibitory potency at pH 7.5 was compared to the inhibitory potency of ABH at pH 7.5.
(§2) Quantitative determination of arginase activity was performed in a 96-well format by a colorimetric method using the QuantiChrom™ Arginase Assay Kit available from BioAssay Systems (Hayward, Calif., Catalog No. DARG-200) according to the manufacturer's protocol. Modifications were made to reagent quantities to suit the assaying of a highly purified sample.
(§3) The intensity of the color was directly proportional to the arginase activity in the sample.
(§4) The rate of urea production was measured in the presence of twelve different concentrations of each potential inhibitor compound. In a typical assay, seven different compounds were tested relative to a control inhibitor (e.g. ABH) against one enzyme (either human ArgI or human ArgII) at a particular pH (either 9.5 or 7.5). The pH of the solution was controlled using an appropriate pH buffering compound at 60 mM concentrations; for example, 60 mM glycine (pH 9.5) or 60 mM HEPES (pH 7.5). The half maximal inhibitory concentration (IC50) was determined by constructing a dose-response curve.

Another assay addresses T2, human arginase II (Homo sapiens, UniProt P78540).
T2 sequence (P78540 23-354): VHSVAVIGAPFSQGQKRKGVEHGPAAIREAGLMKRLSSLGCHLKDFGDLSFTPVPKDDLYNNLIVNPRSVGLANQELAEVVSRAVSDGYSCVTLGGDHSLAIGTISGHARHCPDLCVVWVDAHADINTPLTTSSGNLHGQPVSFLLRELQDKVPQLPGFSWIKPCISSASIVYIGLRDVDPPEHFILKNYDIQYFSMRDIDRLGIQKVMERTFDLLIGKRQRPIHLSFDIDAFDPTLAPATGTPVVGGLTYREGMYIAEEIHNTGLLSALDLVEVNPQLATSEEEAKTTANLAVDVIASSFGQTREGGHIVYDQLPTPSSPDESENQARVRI
Described as above. It counts as biochemical. The procedure:
as §1, §2, §3, §4

Setting [1] is: Table 3, pH 7.5, read-out: human Arginase I pH 7.5, Ki assigned value.
[2] abbreviates: Table 3, pH 9.5, read-out: human Arginase I pH 9.5, Ki assigned value.
[3] abbreviates: Table 3, pH 7.5, read-out: human Arginase II pH 7.5, Ki assigned value.
Where [4] appears, read: Table 3, pH 9.5, read-out: human Arginase II pH 9.5, Ki assigned value.
Where [5] appears, read: Table 2, pH 7.5, read-out: human arginase I pH 7.5, Ki assigned value.
Setting [6] is: Table 2, pH 9.5, read-out: human arginase I pH 9.5, Ki assigned value.
The mark [7] stands for this setting: Table 2, pH 7.5, read-out: human arginase II pH 7.5, Ki assigned value.
The mark [8] stands for this setting: Table 2, pH 9.5, read-out: human arginase II pH 9.5, Ki assigned value.

As for `CN1CCN(CCCC(N)(CCCCB(O)O)C(=O)O)C(c2ccccc2)C1` (centres unmarked) [Example 46], the inhibition constant (Ki) – broadly, a measure of affinity in units of concentration, obtained from inhibition or displacement – is 11 to 50 nM on human arginase I (setting [1]), 11 to 50 nM at human arginase I (setting [2]), 11 to 50 nM at human arginase II (setting [3]) and less than 10 nM at human arginase II (setting [4]).
On to `NC(CCCCB(O)O)(CCCN1CCC(O)(c2ccc(Cl)cc2)CC1)C(=O)O` (centres unmarked) [Example 40], for which the Ki on human arginase I (setting [1]) is less than 10 nM; on human arginase I (setting [2]) it was less than 10 nM; on human arginase II (setting [3]), less than 10 nM; at human arginase II (setting [4]), 11 to 50 nM.
With `NC(CCCCB(O)O)(CCC1CCCCN1Cc1ccc(F)c(F)c1)C(=O)O` (centres unmarked) [Example 21], the Ki lay within 11 to 50 nM on human arginase I (setting [1]), 11 to 50 nM on human arginase I (setting [2]), 51 to 100 nM at human arginase II (setting [3]) and 51 to 100 nM on human arginase II (setting [4]).
On to `NC(CCCCB(O)O)(CCCN1C2CCC1CC(n1cnc3ccccc31)C2)C(=O)O` (centres unmarked) [Example 102], for which the inhibition constant Ki on human arginase I (setting [1]) was less than 10 nM; on human arginase I (setting [2]), 11 to 50 nM; on human arginase II (setting [3]), less than 10 nM; on human arginase II (setting [4]), 11 to 50 nM.
For `NC(CCCCB(O)O)(CCCN1CCC(NC(=O)c2ccccc2)CC1)C(=O)O` (centres unmarked) [Example 44], the inhibition constant (Ki) at human arginase I (setting [1]) is less than 10 nM; at human arginase I (setting [2]), 11 to 50 nM; on human arginase II (setting [3]) it was less than 10 nM; on human arginase II (setting [4]) it was 11 to 50 nM.
Consider `NC(CCCCB(O)O)(CCCN1CCCCC1c1ccc(F)cc1)C(=O)O` (centres unmarked) [Example 17], for which the Ki was less than 10 nM at human arginase I (setting [5]), 11 to 50 nM at human arginase I (setting [6]), 101 to 250 nM at human arginase II (setting [7]) and 11 to 50 nM at human arginase II (setting [8]).
`CN(C)CCN(C)CCCC(N)(CCCCB(O)O)C(=O)O` (centres unmarked) [Example 88]: the Ki on human arginase I (setting [1]) lay in the range of 51 to 100 nM; at human arginase I (setting [2]) it was 11 to 50 nM; at human arginase II (setting [3]) it was 51 to 100 nM; on human arginase II (setting [4]), 51 to 100 nM.
`NC(CCCCB(O)O)(CCCn1cnc2ccccc21)C(=O)O` (centres unmarked) [Example 116]: the inhibition constant Ki at human arginase I (setting [1]) fell in the range of 251 to 400 nM; on human arginase I (setting [2]), 11 to 50 nM; at human arginase II (setting [3]), 11 to 50 nM; on human arginase II (setting [4]) it was 11 to 50 nM.
For the molecule `NC(CCCCB(O)O)(CCCN1CCC(NC(=O)Nc2ccc(Cl)c(Cl)c2)C1)C(=O)O` (centres unmarked) [Example 112], the Ki is less than 10 nM on human arginase I (setting [1]), less than 10 nM on human arginase I (setting [2]), less than 10 nM on human arginase II (setting [3]) and 11 to 50 nM on human arginase II (setting [4]).
Consider `CN(CCCC(N)(CCCCB(O)O)C(=O)O)C1CCCCC1` (centres unmarked) [Example 78], for which the inhibitory constant (Ki) on human arginase I (setting [1]) fell in the range of 11 to 50 nM; on human arginase I (setting [2]), 11 to 50 nM; on human arginase II (setting [3]), 51 to 100 nM; at human arginase II (setting [4]), 11 to 50 nM.
For the molecule `NC(CCCCB(O)O)(CCCN1CCOCC1)C(=O)O` (centres unmarked) [Example 64], the Ki on human arginase I (setting [1]) is less than 10 nM; on human arginase I (setting [2]), 11 to 50 nM; at human arginase II (setting [3]), 11 to 50 nM; on human arginase II (setting [4]), 51 to 100 nM.
In the case of `CN(CCCC(N)(CCCCB(O)O)C(=O)O)Cc1ccc2ccccc2c1` (centres unmarked) [Example 120], the inhibitory constant (Ki) at human arginase I (setting [1]) is less than 10 nM; at human arginase I (setting [2]) it was 11 to 50 nM; on human arginase II (setting [3]) it was less than 10 nM; at human arginase II (setting [4]), less than 10 nM.
For `NC(CCCCB(O)O)(CCC1CCCCN1Cc1cc(F)cc(F)c1)C(=O)O` (centres unmarked) [Example 20], the inhibitory constant (Ki) at human arginase I (setting [1]) was 11 to 50 nM; on human arginase I (setting [2]) it was 11 to 50 nM; at human arginase II (setting [3]) it was 101 to 250 nM; at human arginase II (setting [4]), 101 to 250 nM.
As to `NC(CCCCB(O)O)(CCCN1CCN(c2ccc(C(F)(F)F)cn2)CC1)C(=O)O` (centres unmarked) [Example 41], the Ki on human arginase I (setting [1]) was less than 10 nM; at human arginase I (setting [2]), 11 to 50 nM; on human arginase II (setting [3]), less than 10 nM; at human arginase II (setting [4]), 11 to 50 nM.
Regarding `NC(CCCCB(O)O)(CCCNC1CCCCC1)C(=O)O` (centres unmarked) [Example 77], the inhibition constant (Ki) was less than 10 nM on human arginase I (setting [1]), less than 10 nM on human arginase I (setting [2]), less than 10 nM on human arginase II (setting [3]) and 11 to 50 nM at human arginase II (setting [4]).
In the case of `NC(CCCCB(O)O)(CCCN1CCC(Oc2ccc(C(F)(F)F)cc2)CC1)C(=O)O` (centres unmarked) [Example 34], the Ki was less than 10 nM at human arginase I (setting [1]), less than 10 nM at human arginase I (setting [2]), less than 10 nM on human arginase II (setting [3]) and 11 to 50 nM on human arginase II (setting [4]).
For the molecule `NC(CCCCB(O)O)(CCCN1CCN(Cc2ccc(F)cc2)CC1)C(=O)O` (centres unmarked) [Example 11], the inhibition constant (Ki) on human arginase I (setting [5]) was less than 10 nM; at human arginase I (setting [6]), 11 to 50 nM; at human arginase II (setting [7]), 11 to 50 nM; at human arginase II (setting [8]), 11 to 50 nM.
